According to US7928233B2, “Spiroindolinone pyridine derivatives” (Hoffmann-La Roche Inc., priority 2009, dated 2011):
pIC50: −log10 of the molar value.

Molecular target: interaction between p53 and MDM2 proteins (recombinant GST-tagged MDM2 / p53 peptide) (Homo sapiens, UniProt Q00987)
Experiment: HTRF assay of inhibition of p53-MDM2 interaction
Assay type: binding
Settings: 0.02% BSA; HTRF GST-MDM2 / biotinylated p53 peptide
Protocol: The ability of the compounds to inhibit the interaction between p53 and MDM2 proteins was measured by an HTRF (homogeneous time-resolved fluorescence) assay in which recombinant GST-tagged MDM2 binds to a peptide that resembles the MDM2-interacting region of p53 (Lane et al.). Binding of GST-MDM2 protein and p53-peptide (biotinylated on its N-terminal end) is registered by the FRET (fluorescence resonance energy transfer) between Europium (Eu)-labeled anti-GST antibody and streptavidin-conjugated Allophycocyanin (APC).
Test is performed in black flat-bottom 384-well plates (Costar) in a total volume of 40 uL containing: 90 nM biotinylate peptide, 160 ng/ml GST-MDM2, 20 nM streptavidin-APC (PerkinElmerWallac), 2 nM Eu-labeled anti-GST-antibody (PerkinElmerWallac), 0.2% bovine serum albumin (BSA), 1 mM dithiothreitol (DTT) and 20 mM Tris-borate saline (TBS) buffer as follows: Add 10 uL of GST-MDM2 (640 ng/ml working solution) in reaction buffer to each well. Add 10 uL diluted compounds (1:5 dilution in reaction buffer) to each well, mix by shaking Add 20 uL biotinylated p53 peptide (180 nM working solution) in reaction buffer to each well and mix on shaker. Incubate at 37° C. for 1 h. Add 20 uL streptavidin-APC and Eu-anti-GST antibody mixture (6 nM Eu-anti-GST and 60 nM streptavidin-APC working solution) in TBS buffer with 0.2% BSA, shake at room temperature for 30 minutes and read using a TRF-capable plate reader at 665 and 615 nm (Victor 5, Perkin ElmerWallac). If not specified, the reagents were purchased from Sigma Chemical Co.

interaction between p53 and MDM2 proteins (recombinant GST-tagged MDM2 / p53 peptide), sequence (Q00987 whole entry): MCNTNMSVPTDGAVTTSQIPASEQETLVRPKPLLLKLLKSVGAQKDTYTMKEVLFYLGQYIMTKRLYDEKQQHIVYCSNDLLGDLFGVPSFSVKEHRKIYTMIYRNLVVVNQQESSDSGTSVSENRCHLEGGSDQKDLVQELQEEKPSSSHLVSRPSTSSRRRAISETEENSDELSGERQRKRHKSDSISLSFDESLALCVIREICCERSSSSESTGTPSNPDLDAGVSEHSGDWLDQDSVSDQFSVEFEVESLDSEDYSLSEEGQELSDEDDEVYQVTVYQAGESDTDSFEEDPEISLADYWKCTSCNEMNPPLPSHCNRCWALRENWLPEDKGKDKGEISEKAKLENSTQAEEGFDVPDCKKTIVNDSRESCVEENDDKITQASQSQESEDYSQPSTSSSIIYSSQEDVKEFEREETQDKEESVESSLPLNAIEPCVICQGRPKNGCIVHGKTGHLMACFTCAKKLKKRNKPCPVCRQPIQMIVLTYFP

SMILES | pIC50
Cc1ccc(F)cc1[C@@H]1NC(=O)C[C@H](c2cc(Cl)cnc2OC(C)(C)C(=O)O)[C@@]12C(=O)Nc1cc(Cl)ccc12 (racemic) [Example 8, racemic (2′S, 3S, 4′R)-6-chloro-4′-[5-chloro-2-(1-hydroxycarbonyl-1-methyl-ethoxy)-pyridin-3-yl]-2′-(5-fluoro-2-methyl-phenyl) spiro[3H-indole-3,3′-piperidine]-2,6′(1H)-dione] | 6.84
Cc1ccc(F)cc1[C@@H]1NC(=O)C[C@H](c2cc(Cl)cnc2OC(C)(C)C(=O)O)[C@@]12C(=O)Nc1cc(Cl)ccc12 [Example 9, chiral (2′S, 3S, 4′R)-6-chloro-4′-[5-chloro-2-(1-hydroxycarbonyl-1-methyl-ethoxy)-pyridin-3-yl]-2′-(5-fluoro-2-methyl-phenyl) spiro[3H-indole-3,3′-piperidine]-2,6′(1H)-dione] | 6.97
Cc1ccc(F)cc1[C@@H]1NC(=O)C[C@H](c2cc(Cl)cnc2OC(C)(C)C(=O)NS(C)(=O)=O)[C@@]12C(=O)Nc1cc(Cl)ccc12 [Example 11, chiral (2′S, 3S, 4′R)-4′-[5-chloro-2-(2-methanesulfonylamino-1,1-methyl-2-oxo-ethoxy)-pyridin-3-yl]-6-chloro-2′-(5-fluoro-2-methyl-phenyl) spiro[3H-indole-3,3′-piperidine]-2,6′(1H)-dione] | 6.87
Cc1ccc(Cl)cc1[C@@H]1NC(=O)C[C@H](c2cc(Cl)cnc2OC(C)(C)C(=O)O)[C@@]12C(=O)Nc1cc(Cl)ccc12 [Example 15, chiral (2′S, 3S, 4′R)-6-chloro-4′-[5-chloro-2-(1-hydroxycarbonyl-1-methyl-ethoxy)-pyridin-3-yl]-2′-(5-chloro-2-methyl-phenyl) spiro[3H-indole-3,3′-piperidine]-2,6′(1H)-dione] | 7.25
